pIC50: −log10 of the molar value. Marks after values point to notes of the source that are not given here.
Experiments:
[1] = test system: standard human plasma; assay: Activated partial thromboplastin time (APTT) in standard human plasma; type: biochemical; settings: concentration required for doubling the coagulation time vs vehicle (1% DMSO)
Method: Activated partial thromboplastin time (APTT) and prothrombin time (PT) were measured by using a fully automatic device for measuring blood coagulation (CA-1500, Sysmex Corporation). On APTT or PT measurement, standard human plasma for the blood coagulation tests (Siemens Healthcare Diagnostics GmbH) was mixed with a diluted solution of the compound of the present invention, and thereafter, APTT reagent (Siemens Healthcare Diagnostics GmbH) and 0.02 M of calcium chloride or PT reagent (Siemens Healthcare Diagnostics GmbH) were automatically added to the mixture in order to initiate clot formation. The anticoagulation activity (APTT×2 or PT×2) of the compound of the present invention was expressed as a concentration required for doubling the coagulation time in the vehicle (1% DMSO) group. APTT×2 or PT×2 was determined by plotting the concentration of the compound of the present invention against a twofold increase in the coagulation time.

[2] = Pharmacokinetic (PK) tests in rats; type: in vivo; settings: for concentration at 8 h: male, Crj:CD(SD), oral, read-out: Plasma concentration C8h; for concentration at 8 h / AUC: rat, plasma; for AUC: po, fasted male Crj:CD(SD) rats; for APTT × 2 maintaining time: 1 mg/kg orally, period when plasma concentration exceeded APTT×2; for C8h/APTT × 2: C8h divided by APTT×2
Method: The compound of the present invention was administered to fasted male Crj:CD(SD) rats by intravenous injection as a single intravenous dose of 0.1 mg/kg (vehicle: 20% HP-β-CD solution) and by forced oral dosage as a dose of 1 mg/kg per os (vehicle: 0.5% methylcellulose solution). Blood samples were collected from cervical vein into heparinized syringes at 0.08, 0.25, 0.5, 1, 3 or 7 hours after administration by intravenous injection or 0.08, 0.25, 0.5, 1, 2, 4, 6, 8 or 24 hours after oral administration. Plasma was obtained by centrifugation, and plasma was stored at −20° C. until measurement of plasma concentration.
In order to measure the plasma concentration of the compound of the present invention, the plasma sample was subjected to deproteinization by using acetonitrile, was filtrated by using a filter, and thereafter, was diluted with purified water, and then was analyzed by LC/MS/MS. A column for analysis (Shim-pack XR-ODSII, 2.0 mm×75 mm, 2.2 μm) and mobile phases (0.1% formic acid in water and 0.1% formic acid in acetonitrile, flow rate: 0.5 mL/min) were used. The system was used by detection of cations in the Multiple Reaction Monitoring (MRM) mode.
The area under the blood concentration versus time curve (AUC) and the bioavailability (BA) of the compound of the present invention were calculated. In addition, as indices of the maintaining time of the anticoagulation activity in the case of oral administration, AUC/APTT×2, which is obtained by dividing AUC by APTT×2, and C8h/APTT×2, which is obtained by dividing C8h (the plasma concentration at 8 hours after administration) by APTT×2, were calculated.
In addition, the period of time when the compound concentration in plasma of the compound of the present invention exceeded APTT×2 (the APTT×2 maintaining time) was calculated from the change in the compound concentration in plasma in the case when the compound of the present invention was orally administered at a dose of 1 mg/kg. The longer the APTT×2 maintaining time is, the longer the period of time is when the anticoagulation activity is maintained after oral administration.

[3] = biological target: T1, human blood coagulation factor XIa (Homo sapiens, UniProt P03951); assay: Inhibitory activity on human blood coagulation factor XIa (chromogenic substrate S-2366); type: biochemical; settings: chromogenic substrate S-2366, 37° C.; read-out: FXIa inhibitory activity IC50
T1 construct: human blood coagulation factor XIa (Haematologic Technologies Inc.); purchased Haematologic Technologies Inc
Method: Inhibitory activities of the compound of the present invention on human blood coagulation factor XIa, factor VIIa, factor IXa, factor Xa, factor XIIa, plasma kallikrein and thrombin were evaluated. A chromogenic substrate solution was added to each of enzyme solutions, the absorbance at 405 nm was measured continuously at 37° C. for 5 minutes at intervals of 15 seconds, and the decomposition rate of each of substrates (mOD/min) was calculated. The half maximal (50%) inhibitory concentration (IC50) of the compound of the present invention on each of the enzymes was calculated by linear regression by using least-squares method from the concentration of the compound of the present invention which was converted in terms of natural logarithm and the rate of enzyme inhibition calculated according to the following equation.
The rate of enzyme inhibition (%) of the compound of the present invention was calculated by using the following equation: Rate of enzyme inhibition (%)=100×{(Cont(e)−BL(e))−(Comp(e)−BL(e))/(Cont(e)−BL(e))}
Cont (e): Decomposition rate of substrate (mOD/min) when enzyme solution and substrate solution were added to physiological saline containing 5% dimethyl sulfoxide
Comp (e): Decomposition rate of substrate (mOD/min) when enzyme solution and substrate solution were added to physiological saline containing 5% dimethyl sulfoxide and the compound of the present invention
The inhibitory activity on human blood coagulation factor XIa (Haematologic Technologies Inc.) was measured by using the enzyme solution adjusted to 0.1 U/mL by a buffer solution containing 300 mM of NaCl, 10 mM of KCl, 2 mg/mL of PEG 6000 and 100 mM of HEPES-NaOH (pH 7.4) as well as S-2366 (pyroglu-Pro-Arg-pNA, CHROMOGENIX) adjusted to 1 mM by distilled water.

[4] = rats, 1 mg/kg per os, 8 hours after administration

T1 sequence (P03951 388-625 limits assumed): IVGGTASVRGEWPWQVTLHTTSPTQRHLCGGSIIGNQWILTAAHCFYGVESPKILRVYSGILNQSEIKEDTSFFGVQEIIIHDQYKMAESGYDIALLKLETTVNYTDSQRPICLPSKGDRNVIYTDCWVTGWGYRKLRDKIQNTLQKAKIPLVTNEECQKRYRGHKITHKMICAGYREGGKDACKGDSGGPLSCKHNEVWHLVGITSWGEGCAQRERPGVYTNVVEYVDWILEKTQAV
T1 sequence (P03951 19-387 partner limits assumed): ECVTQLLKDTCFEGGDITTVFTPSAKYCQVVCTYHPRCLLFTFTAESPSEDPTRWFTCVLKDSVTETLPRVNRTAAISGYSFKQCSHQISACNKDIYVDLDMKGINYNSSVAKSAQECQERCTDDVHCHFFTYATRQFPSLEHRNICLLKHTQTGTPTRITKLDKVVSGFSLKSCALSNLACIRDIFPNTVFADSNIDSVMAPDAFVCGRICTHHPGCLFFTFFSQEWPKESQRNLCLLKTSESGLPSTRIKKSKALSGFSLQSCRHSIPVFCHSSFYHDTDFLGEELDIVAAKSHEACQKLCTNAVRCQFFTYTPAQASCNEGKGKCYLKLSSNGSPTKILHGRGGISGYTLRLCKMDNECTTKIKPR

| Compound | APTT × [1] | concentration at 8 h [2, 4] | AUC ([2]; 1 mg/kg per os) | APTT × 2 maintaining time ([2]; rats) | C8h/APTT × 2 ([2]; rats, 1 mg/kg per os) | pIC50 [3] | Plasma concentration C8h [2, 4] |
| --- | --- | --- | --- | --- | --- | --- | --- |
| Nc1ccc(-c2cnc([C@@H]3CCc4cc(-c5cc(Cl)ccc5-n5cnnn5)cc(=O)n43)[nH]2)c(F)n1 [Comparative Example 1 (1), (3S)-3-[5-(6-amino-2-fluoro-3-pyridinyl)-1H-imidazol-2-yl]-7-[5-chloro-2-(1H-tetrazol-1-yl)phenyl]-2,3-dihydro-5(1H)-indolizinone] | 1.2 µM | 170 nM | 4.7 µM·h | 0* h | 0.15 | – | – |
| Nc1ccc(-c2[nH]c([C@@H]3CCc4cc(-c5cc(Cl)ccc5-n5cnnn5)cc(=O)n43)nc2Cl)c(F)n1 [Comparative Example 1 (2), (3S)-3-[5-(6-amino-2-fluoro-3-pyridinyl)-4-chloro-1H-imidazol-2-yl]-7-[5-chloro-2-(1H-tetrazol-1-yl)phenyl]-2,3-dihydro-5(1H)-indolizinone] | 1.8 µM | 26 nM | 0.69 µM·h | 0* h | 0.014 | 8.32 | – |
| Nc1ccc(-c2[nH]c([C@@H]3CCc4cc(-c5cc(Cl)ccc5-n5cnnn5)cc(=O)n43)nc2F)cn1 [Comparative Example 1 (3), (3S)-3-[5-(6-amino-3-pyridinyl)-4-fluoro-1H-imidazol-2-yl]-7-[5-chloro-2-(1H-tetrazol-1-yl)phenyl]-2,3-dihydro-5(1H)-indolizinone] | 0.55 µM | 81 nM | 1.7 µM·h | <1 h | 0.15 | 8.85 | – |
| Nc1ccc(-c2ncc([C@@H]3CCc4cc(-c5cc(Cl)ccc5-n5cnnn5)cc(=O)n43)[nH]2)c(F)n1 [Comparative Example 2 (1), (3S)-3-[2-(6-amino-2-fluoro-3-pyridinyl)-1H-imidazol-5-yl]-7-[5-chloro-2-(1H-tetrazol-1-yl)phenyl]-2,3-dihydro-5(1H)-indolizinone] | 4.0 µM | – | 0.056 µM·h | 0* h | – | 7.72 | BLQ* |
| Nc1ccc(-c2nc(Cl)c([C@@H]3CCc4cc(-c5cc(Cl)ccc5-n5cnnn5)cc(=O)n43)[nH]2)c(F)n1 [Comparative Example 2 (3), (3S)-3-[2-(6-amino-2-fluoro-3-pyridinyl)-4-chloro-1H-imidazol-5-yl]-7-[5-chloro-2-(1H-tetrazol-1-yl)phenyl]-2,3-dihydro-5(1H)-indolizinone] | 2.1 µM | 1100 nM | 23 µM·h | <2 h | 0.52 | 8.36 | – |
| Nc1ccc(-c2nc(F)c([C@@H]3CCc4cc(-c5cc(Cl)ccc5-n5cnnn5)cc(=O)n43)[nH]2)cn1 [Comparative Example 2 (5), (3S)-3-[2-(6-Amino-3-Pyridinyl)-4-Fluoro-1H-Imidazol-5-Yl]-7-[5-Chloro-2-(1H-Tetrazol-1-Yl)Phenyl]-2,3-Dihydro-5(1H)-Indolizinone] | 0.21 µM | 73 nM | 1.6 µM·h | <2 h | 0.34 | 8.80 | – |
| COC(=O)Nc1ccc(-c2nc(Cl)c([C@@H]3CCc4nc(-c5cc(Cl)ccc5-n5cnnn5)cc(=O)n43)[nH]2)cc1 [Comparative Example 3 (1), methyl[4-(4-chloro-5-{(6S)-2-[5-chloro-2-(1H-tetrazol-1-yl)phenyl]-4-oxo-4,6,7,8-tetrahydropyrrolo[1,2-a]pyrimidin-6-yl}-1H-imidazol-2-yl)phenyl]carbamate] | 0.64 µM | 180 nM | 4.2 µM·h | <2 h | 0.29 | 8.80 | – |
| Nc1ccc(-c2[nH]c([C@@H]3CCc4nc(-c5cc(Cl)ccc5-n5cnnn5)cc(=O)n43)nc2Cl)c(F)n1 [Comparative Example 3 (2), (6S)-6-[5-(6-amino-2-fluoro-3-pyridinyl)-4-chloro-1H-imidazol-2-yl]-2-[5-chloro-2-(1H-tetrazol-1-yl)phenyl]-7,8-dihydropyrrolo[1,2-a]pyrimidin-4(6H)-one] | 3.7 µM | 27 nM | 1.4 µM·h | 0* h | 0.0073 | 7.96 | – |
| N#Cc1cn(-c2ccc(Cl)cc2-c2cc3n(c(=O)c2)[C@H](c2nc(Cl)c(-c4ccc(N)nc4)[nH]2)CC3)nn1 [Comparative Example 4, 1-(2-{(3S)-3-[5-(6-amino-3-pyridinyl)-4-chloro-1H-imidazol-2-yl]-5-oxo-1,2,3,5-tetrahydro-7-indolizinyl}-4-chlorophenyl)-1H-1,2,3-triazole-4-carbonitrile] | 2.0 µM | 350 nM | 8.4 µM·h | 0* h | 0.18 | 8.57 | – |
| Nc1ccc(-c2[nH]c([C@@H]3CCc4cc(-c5cc(Cl)ccc5-n5cnnn5)cc(=O)n43)nc2F)c(F)n1 [Example 1 (6), (3S)-3-[5-(6-Amino-2-Fluoro-3-Pyridinyl)-4-Fluoro-1H-Imidazol-2-Yl]-7-[5-Chloro-2-(1H-Tetrazol-1-Yl)Phenyl]-2,3-Dihydro-5(1H)-Indolizinone] | 0.80 µM | 880 nM | 33 µM·h | >8 h | 1.1 | 8.77 | – |
